Where two headings read alike, the source gives them in different places.

Data set [1] deals with human D2R (Homo sapiens (Human), UniProt P14416). The data set can be described thus: Radioligand competition binding, [3H]N-methylspiperone, HEK293 membranes expressing human D2R. The conditions noted are these: read-out: D2R Ki ± SEM. The procedure: (§1) Binding at dopamine D2-like receptors was determined using previously described methods. […] Upon reaching 80-90% confluence, cells were harvested using pre-mixed Earle's Balanced Salt Solution (EBSS) with […] EDTA (Life Technologies) and centrifuged at 3000 rpm for 10 min at 21° C. The supernatant was removed and the pellet was resuspended in 10 mL hypotonic lysis buffer (5 mM MgCl2.6H2O, 5 mM Tris, pH 7.4 at 4° C.) and centrifuged at 20,000 rpm for 30 min at 4° C. The pellet was then resuspended in fresh EBSS buffer made from 8.7 g/L Earle's Balanced Salts without phenol red (US Biological, Salem, Mass.), 2.2 g/L sodium bicarbonate, pH to 7.4. A Bradford protein assay (Bio-Rad, Hercules, Calif.) was used to determine the protein concentration and membranes were diluted to 500 μg/mL and stored in a −80° C. freezer for later use.
(§2) Radioligand competition binding experiments were conducted using thawed membranes. Test compounds were freshly dissolved in 30% DMSO and 70% H2O to a stock concentration of 100 μM. To assist the solubilization of free-base compounds, 10 μl of glacial acetic acid was added along with the DMSO. Each test compound was then diluted into 13 half-log serial dilutions using 30% DMSO vehicle; final test concentrations ranged from 10 μM to 10 pM. Previously frozen membranes were diluted in fresh EBSS to a 100 μg/mL (for hD2R or hD3R) or 200 μg/mL (hD4R) stock for binding. […] buffer with 0.2 mM sodium metabisulfite, 50 μl of diluted test compound, 100 μl of membranes (10 μg total protein for hD2R or hD3R, 20 μg total protein for hD4R), and 50 μl of [^3H]N-methylspiperone (0.4 nM final concentration; Perkin Elmer). Nonspecific binding was determined using 10 μM butaclamol (Sigma-Aldrich, St. Louis, Mo.) and total binding was determined with 30% DMSO vehicle. All compound dilutions were tested in triplicate and the reaction incubated for one hour at room temperature. The reaction was terminated by filtration through Whatman GF/B filters, presoaked for one hour in 0.5% polyethylenimine, using a Brandel R48 filtering manifold (Brandel Instruments, Gaithersburg, Md.). The filters were washed 3 times with 3 mL of ice cold EBSS buffer and transferred to scintillation vials. […] IC50 values for each compound were determined from dose-response curves and Ki values were calculated using the Cheng-Prusoff equation; these analyses were performed using GraphPad Prism version 5.00 for Windows (GraphPad Software, San Diego, Calif.). Reported Ki values were determined from least three independent experiments.
(§3) The binding affinities of the compounds were evaluated by performing competition binding studies with [^3H]N-methylspiperone using membranes prepared from HEK293 cells expressing either the human D2R or D3R.
A general note: Displacement assays read how much labelled ligand stays bound in the presence of the test substance.

Data set [2] deals with human D4R (Homo sapiens (Human), UniProt P21917). The data set can be described thus: Radioligand competition binding, [3H]N-methylspiperone, HEK293 membranes expressing human D4R. The conditions noted are these: Table 1A; for Ki: [3H]N-methylspiperone, read-out: D4R Ki ± SEM; for D4/D2 / D4/D3: ratio of Ki values. As for the experimental part:
Binding at dopamine D2-like receptors was determined using previously described methods. (Chen et al. “Tranylcypromine substituted cis-hydroxycyclobutylnaphthamides as potent and selective dopamine D(3) receptor antagonists.” J. Med. Chem. 2014, 57, 4962-4968) Membranes were prepared from HEK293 cells expressing human D2R, D3R or D4R, grown in a 50:50 mix of DMEM and Ham's F12 culture media, supplemented with 20 mM HEPES, 2 mM L-glutamine, 0.1 mM non-essential amino acids, 1× antibiotic/antimycotic, 10% heat-inactivated fetal bovine serum, and 200 μg/mL hygromycin (Life Technologies, Grand Island, N.Y.) and kept in an incubator at 37° C. and 5% CO2. Upon reaching 80-90% confluence, cells were harvested using pre-mixed Earle's Balanced Salt Solution (EBSS) with […] EDTA (Life Technologies) and centrifuged at 3000 rpm for 10 min at 21° C. The supernatant was removed and the pellet was resuspended in 10 mL hypotonic lysis buffer (5 mM MgCl2.6H2O, 5 mM Tris, pH 7.4 at 4° C.) and centrifuged at 20,000 rpm for 30 min at 4° C. The pellet was then resuspended in fresh EBSS buffer made from 8.7 g/L Earle's Balanced Salts without phenol red (US Biological, Salem, Mass.), 2.2 g/L sodium bicarbonate, pH to 7.4. A Bradford protein assay (Bio-Rad, Hercules, Calif.) was used to determine the protein concentration and membranes were diluted to 500 μg/mL and stored in a −80° C. freezer for later use.
Radioligand competition binding experiments were conducted using thawed membranes. Test compounds were freshly dissolved in 30% DMSO and 70% H2O to a stock concentration of 100 μM. To assist the solubilization of free-base compounds, 10 μl of glacial acetic acid was added along with the DMSO. Each test compound was then diluted into 13 half-log serial dilutions using 30% DMSO vehicle; final test concentrations ranged from 10 μM to 10 pM. Previously frozen membranes were diluted in fresh EBSS to a 100 μg/mL (for hD2R or hD3R) or 200 μg/mL (hD4R) stock for binding. Radioligand competition experiments were conducted in glass tubes containing 300 μl fresh EBSS buffer with 0.2 mM sodium metabisulfite, 50 μl of diluted test compound, 100 μl of membranes (10 μg total protein for hD2R or hD3R, 20 μg total protein for hD4R), and 50 μl of [^3H]N-methylspiperone (0.4 nM final concentration; Perkin Elmer). Nonspecific binding was determined using 10 μM butaclamol (Sigma-Aldrich, St. Louis, Mo.) and total binding was determined with 30% DMSO vehicle. All compound dilutions were tested in triplicate and the reaction incubated for one hour at room temperature. The reaction was terminated by filtration through Whatman GF/B filters, presoaked for one hour in 0.5% polyethylenimine, using a Brandel R48 filtering manifold (Brandel Instruments, Gaithersburg, Md.). The filters were washed 3 times with 3 mL of ice cold EBSS buffer and transferred to scintillation vials. 3 mL CytoScint liquid scintillation cocktail (MP Biomedicals, Solon, Ohio) was added and vials were counted using a Perkin Elmer Tri-Carb 2910 TR liquid scintillation counter (Waltham, Mass.). IC50 values for each compound were determined from dose-response curves and Ki values were calculated using the Cheng-Prusoff equation; these analyses were performed using GraphPad Prism version 5.00 for Windows (GraphPad Software, San Diego, Calif.). Reported Ki values were determined from least three independent experiments.

Data set [3] has as its target 5-HT1A (Homo sapiens (Human), UniProt P08908). The data set is described as follows: 5-HT1A [3H]-8-OH-DPAT binding. The conditions noted are these: read-out: 5-HT1A [3H]-8-OH-DPAT Ki ± SEM.
In data set [4] the target is 5-HT2A (Homo sapiens (Human), UniProt P28223). The data set can be described thus: 5-HT2A [125I]DOI binding. The following applies: read-out: 5-HT2A [125I]DOI Ki ± SEM.
Data set [5] addresses 5-HT2C (Homo sapiens (Human), UniProt P28335). The data set is described as follows: 5-HT2C [125I]DOI binding. The conditions noted are these: Table 3a; read-out: 5-HT2C [125I]DOI Ki ± SEM.
The target of data set [6] is human D3R (Homo sapiens (Human), UniProt P35462). The data set is described as follows: Radioligand competition binding, [3H]N-methylspiperone, HEK293 membranes expressing human D3R. The following applies: for Ki: read-out: D3R Ki ± SEM; for D2/D3: ratio of Ki values. As for the experimental part: as §1, §2, §3
Data set [7] concerns the target human dopamine D3R (Homo sapiens (Human), UniProt P35462). The data set is described as follows: D3R mitogenesis assay: stimulation or inhibition of quinpirole-stimulated mitogenesis in CHO cells. It counts as cell-based. The following applies: inhibition of quinpirole-stimulated mitogenesis.
A short description of data set [8]: Phase I metabolic stability in rat liver microsomes. Format: in vitro ADME. The conditions noted are these: phase I metabolic stability in rat liver microsomes. The text has this: Rat Liver Microsome Metabolic Stability: Test compounds including 3-F analogues (C4a, C4b, C5a, C5b) and 29, 19 as well as the R-, S-enantiomers of C4a, C5a, 29 and 19 were screened for phase I metabolic stability in rat liver microsomes.
A general note: Liver microsomes are vesicles of endoplasmic reticulum, rich in cytochrome P450 enzymes.

[9] abbreviates: Table 1A, HEK 293 cells transfected with hD2LR, [3H]N-methylspiperone.
[10] abbreviates: Table 1B, [3H]-N-methylspiperone competition, D2LR, 96-well plates.
[11] abbreviates: Table 1A, HEK 293 cells transfected with hD3R, [3H]N-methylspiperone.
The mark [12] stands for this setting: Table 2a, read-out: Antagonist IC50 ± SEM.

Chain of human D2R (P14416 whole entry): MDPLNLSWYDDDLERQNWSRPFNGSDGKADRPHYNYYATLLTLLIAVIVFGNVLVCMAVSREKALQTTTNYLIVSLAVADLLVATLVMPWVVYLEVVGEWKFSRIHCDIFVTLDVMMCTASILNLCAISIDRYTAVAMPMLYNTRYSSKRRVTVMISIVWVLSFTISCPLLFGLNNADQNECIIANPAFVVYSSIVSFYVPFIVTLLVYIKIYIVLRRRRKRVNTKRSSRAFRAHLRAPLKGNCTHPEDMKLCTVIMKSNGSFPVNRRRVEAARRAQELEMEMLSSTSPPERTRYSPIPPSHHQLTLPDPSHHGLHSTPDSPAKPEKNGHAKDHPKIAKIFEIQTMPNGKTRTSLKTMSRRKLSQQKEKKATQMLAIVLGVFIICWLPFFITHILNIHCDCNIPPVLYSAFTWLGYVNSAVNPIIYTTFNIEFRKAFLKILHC
Chain of 5-HT1A (P08908 whole entry, species assumed): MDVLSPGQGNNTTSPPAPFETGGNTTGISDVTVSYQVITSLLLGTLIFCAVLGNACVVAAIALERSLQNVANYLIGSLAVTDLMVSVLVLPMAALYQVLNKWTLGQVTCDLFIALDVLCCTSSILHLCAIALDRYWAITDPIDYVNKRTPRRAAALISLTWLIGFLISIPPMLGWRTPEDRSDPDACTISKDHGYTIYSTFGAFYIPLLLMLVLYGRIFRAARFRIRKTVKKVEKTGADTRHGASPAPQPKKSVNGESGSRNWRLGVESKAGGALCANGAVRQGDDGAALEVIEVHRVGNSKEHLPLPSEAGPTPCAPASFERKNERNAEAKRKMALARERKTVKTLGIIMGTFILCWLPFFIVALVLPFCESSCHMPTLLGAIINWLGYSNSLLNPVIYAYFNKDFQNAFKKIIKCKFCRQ
Chain of 5-HT2A (P28223 whole entry, species assumed): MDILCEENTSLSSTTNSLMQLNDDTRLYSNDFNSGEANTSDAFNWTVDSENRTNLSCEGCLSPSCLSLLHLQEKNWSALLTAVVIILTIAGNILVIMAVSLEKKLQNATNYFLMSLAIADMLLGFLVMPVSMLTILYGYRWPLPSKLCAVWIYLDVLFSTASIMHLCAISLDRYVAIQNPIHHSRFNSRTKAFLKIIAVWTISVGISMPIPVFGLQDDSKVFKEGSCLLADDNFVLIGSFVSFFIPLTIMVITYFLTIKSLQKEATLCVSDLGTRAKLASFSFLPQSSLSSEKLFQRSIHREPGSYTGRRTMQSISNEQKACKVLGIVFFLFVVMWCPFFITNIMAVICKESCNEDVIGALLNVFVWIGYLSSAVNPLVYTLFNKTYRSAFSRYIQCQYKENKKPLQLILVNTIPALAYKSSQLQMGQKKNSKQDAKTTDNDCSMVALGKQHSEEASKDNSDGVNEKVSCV
Chain of 5-HT2C (P28335 33-458, species assumed): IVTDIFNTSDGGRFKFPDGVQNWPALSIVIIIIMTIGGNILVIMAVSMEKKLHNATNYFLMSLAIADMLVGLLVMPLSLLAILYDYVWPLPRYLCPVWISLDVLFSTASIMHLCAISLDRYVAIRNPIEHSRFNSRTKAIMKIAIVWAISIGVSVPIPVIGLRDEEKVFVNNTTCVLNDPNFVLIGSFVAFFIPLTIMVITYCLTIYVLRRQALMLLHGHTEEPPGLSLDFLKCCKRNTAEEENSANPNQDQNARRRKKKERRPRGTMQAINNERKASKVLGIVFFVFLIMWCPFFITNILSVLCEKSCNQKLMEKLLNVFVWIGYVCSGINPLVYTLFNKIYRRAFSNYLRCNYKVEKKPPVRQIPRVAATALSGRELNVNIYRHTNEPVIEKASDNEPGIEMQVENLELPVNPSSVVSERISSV
Chain of human D3R (P35462 whole entry): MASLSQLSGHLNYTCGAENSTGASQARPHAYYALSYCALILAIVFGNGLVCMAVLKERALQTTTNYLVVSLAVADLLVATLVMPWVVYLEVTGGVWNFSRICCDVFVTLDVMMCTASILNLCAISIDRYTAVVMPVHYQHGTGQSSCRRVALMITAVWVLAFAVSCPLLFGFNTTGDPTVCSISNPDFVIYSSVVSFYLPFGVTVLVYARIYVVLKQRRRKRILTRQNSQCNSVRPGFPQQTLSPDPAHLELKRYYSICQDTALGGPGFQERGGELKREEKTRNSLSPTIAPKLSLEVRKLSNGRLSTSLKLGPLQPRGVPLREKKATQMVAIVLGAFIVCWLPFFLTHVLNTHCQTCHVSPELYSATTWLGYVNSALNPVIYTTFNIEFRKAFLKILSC
Chain of human dopamine D3R (P35462 whole entry): as above
Chain of human D4R (P21917 whole entry): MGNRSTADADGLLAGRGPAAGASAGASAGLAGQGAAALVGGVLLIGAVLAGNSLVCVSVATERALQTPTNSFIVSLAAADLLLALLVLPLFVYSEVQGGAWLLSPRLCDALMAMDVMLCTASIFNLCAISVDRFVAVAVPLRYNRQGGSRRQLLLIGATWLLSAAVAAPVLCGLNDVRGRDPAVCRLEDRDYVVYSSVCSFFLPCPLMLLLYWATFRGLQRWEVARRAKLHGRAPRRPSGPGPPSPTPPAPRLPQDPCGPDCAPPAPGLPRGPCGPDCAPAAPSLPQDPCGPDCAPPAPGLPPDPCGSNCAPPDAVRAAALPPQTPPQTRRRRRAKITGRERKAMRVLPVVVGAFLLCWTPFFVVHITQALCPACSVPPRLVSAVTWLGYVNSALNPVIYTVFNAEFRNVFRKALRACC

Regarding `CCc1cccc(N2CCN(CC(O)CCNC(=O)c3cc4ccccc4[nH]3)CC2)c1Cl` (racemic) [Compound 19, N-(4-(4-(2-chloro-3-ethylphenyl)piperazin-1-yl)-3-hydroxybutyl)-1H-indole-2-carboxamide], the Ki is 151 ± 25.4 nM in data set [1] (setting [9]); 119 ± 11.1 nM in data set [1] (setting [10]); 132 ± 12.7 nM in data set [1] (Table 1C); 5520 ± 1660 nM in data set [2]; 880 ± 160 nM in data set [3] (Table 3a); 28.1 ± 9.7 nM in data set [4] (Table 3a). In addition, the Ki in data set [5] came to 113 ± 33 nM.
Take `CCc1cc(Cl)c(OC)c(N2CCN(CC(F)CCNC(=O)c3cc4ccccc4[nH]3)CC2)c1` (racemic) [Compound C4a, N-(4-(4-(3-chloro-5-ethyl-2-methoxyphenyl)piperazin-1-yl)-3-fluorobutyl)-1H-indole-2-carboxamide]: the Ki in data set [1] (setting [10]) is 27100 ± 11600 nM; in data set [1] (Table 1C), 20800 ± 7060 nM; in data set [6] (Table 1B, [3H]-N-methylspiperone competition, 96-well plates) it was 28 ± 5.53 nM; in data set [6] (Table 1C), 27.9 ± 5.64 nM; in data set [3] (Table 3b) it was 9500 ± 3000 nM; in data set [4] (Table 3b), 6600 ± 1400 nM. The results for the D2/D3 in data set [6] (Table 1B) and in data set [6] (Table 1C) were 968 and 746, respectively. The IC50 in data set [7] (Table 2b, read-out: Antagonist IC50 ± S.E.M.) was found to be 510 ± 130 nM. In addition, the “% intact/parent remaining” value in data set [8] is approximately 75%.
In the case of `CCc1cc(Cl)c(OC)c(N2CCN(CCCCNC(=O)c3cc4ccccc4[nH]3)CC2)c1` [Compound 28, N-(4-(4-(3-Chloro-5-ethyl-2-methoxyphenyl)piperazin-1-yl)butyl)-1H-indole-2-carboxamide], the Ki in data set [1] (setting [9]) is 27.8 ± 6.71 nM; in data set [6] (setting [11]) it was 0.341 ± 0.0312 nM; in data set [2], 1040 ± 279 nM; in data set [3] (Table 3a), 2330 ± 700 nM; in data set [4] (Table 3a), 60.1 ± 9.5 nM; in data set [5] it was 144 ± 37 nM. In addition, in data set [6] (Table 1A), the D2/D3 stood at 82. Also, in data set [2], the D4/D2 worked out at 38. Besides, the D4/D3 in data set [2] was determined as 3065. For the same compound, the IC50 in data set [7] (setting [12]) came to 330 ± 100 nM.
As to `CCc1cc(Cl)c(OC)c(N2CCN(CCCCNC(=O)c3cc4ccccc4o3)CC2)c1` [Compound 30, N-(4-(4-(3-Chloro-5-ethyl-2-methoxyphenyl)piperazin-1-yl)butyl)benzofuran-2-carboxamide], the Ki in data set [1] (setting [9]) amounted to 137 ± 9 nM; in data set [6] (setting [11]) it was 3.19 ± 0.268 nM; in data set [2], 714 ± 293 nM; in data set [3] (Table 3a) it was 560 ± 170 nM; in data set [4] (Table 3a), 25 ± 6.6 nM; in data set [5], 55 ± 17 nM. Moreover, the D2/D3 in data set [6] (Table 1A) is given as 43. In addition, the D4/D2 in data set [2] is given as 5.2. Moreover, the D4/D3 in data set [2] was determined as 224. Also, the IC50 in data set [7] (setting [12]) was found to be 420 ± 130 nM.
Turning to `CCc1cc(Cl)c(OC)c(N2CCN(CC(O)CCNC(=O)c3cc4ccccc4o3)CC2)c1` (centres unmarked) [Compound 31, N-(4-(4-(3-Chloro-5-ethyl-2-methoxyphenyl)piperazin-1-yl)-3-hydroxybutyl)benzofuran-2-carboxamide], the Ki in data set [1] (setting [9]) came out at 1620 ± 339 nM; in data set [6] (setting [11]), 36.1 ± 5 nM; in data set [2], 5280 ± 319 nM; in data set [3] (Table 3a) it was 2410 ± 830 nM; in data set [4] (Table 3a), 42.9 ± 6.8 nM; in data set [5], 268 ± 34 nM. In addition, in data set [6] (Table 1A), the D2/D3 came to 45. Further, the D4/D2 in data set [2] was 3.3. The D4/D3 in data set [2] is reported as 146. Besides, the IC50 in data set [7] (setting [12]) came out at 950 ± 350 nM.
Regarding `CCc1cccc(N2CCN(C/C=C/CNC(=O)c3nc(C)c[nH]3)CC2)c1Cl` [Compound 35, (E)-N-(4-(4-(2-Chloro-3-ethylphenyl)piperazin-1-yl)but-2-en-1-yl)-4-methyl-1H-imidazole-2-carboxamide], the Ki is 16.1 ± 1.2 nM in data set [1] (setting [9]), 1.28 ± 0.22 nM in data set [6] (setting [11]) and 503 ± 157 nM in data set [2]. Besides, the D2/D3 in data set [6] (Table 1A) came out at 12.6. Also, the D4/D2 in data set [2] turned out to be 31.2. Moreover, in data set [2], the D4/D3 came to 393.
Turning to `CCc1cccc(N2CCN(CCC(O)CNC(=O)c3cc4ccccc4[nH]3)CC2)c1Cl` (centres unmarked) [Compound 40, N-(4-(4-(2-Chloro-3-ethylphenyl)piperazin-1-yl)-2-hydroxybutyl)-1H-indole-2-carboxamide], the Ki in data set [1] (setting [9]) turned out to be 6.83 ± 0.53 nM. Moreover, in data set [6] (setting [11]), the Ki is 0.2 ± 0.018 nM. Further, in data set [6] (Table 1A), the D2/D3 is reported as 34.2. In data set [2], the inhibition constant Ki turned out to be 305 ± 70.5 nM, the D4/D2 is 44.7 and the D4/D3 is 1525.

The term Ki denotes the equilibrium dissociation constant of an inhibitor or competing ligand from its target. The term IC50 denotes the concentration that inhibits the measured activity by half.

These data come from patent publication US11337971B2, “Dopamine D3 receptor selective antagonists/partial agonists and uses thereof” (THE UNITED STATES OF AMERICA, AS REPRESENTED BY THE …, priority 2018, dated 2022).
